Experimental data as given in US8486994B2, “Prodrugs of substituted 1,3-dioxanes and their uses” (Evolva SA, priority 2007, dated 2013).

Key:
TP Receptor = TP Receptor Platelet Aggregation - Rabbit (U-46619-induced, platelet rich plasma); format: cell-based, New Zealand Rabbit; conditions: at 0.1 mM; 1.5 μM U-46619
Experimental: Using these experimental conditions New Zealand Rabbit (2.75±0.25 kg) platelet rich plasma, Vehicle: 0.3% DMSO, Assay: Inhibition of 1.5 μM U-46619-induced platelet aggregation, Incubation Time, Temp: 5 min at 37° C., Incubation Buffer: Trisodium Citrate (0.13 M)-treated platelet rich plasma, Bath Volume: 0.5 mL, Time of Assessment: 5 min, Quantification Method: Optical Density Change. the assay performed according to Patscheke, H., and Stregmeier, K. (1984) Investigations on a selective non-prostanoic thromboxane antagonist, BM13,177, in human platelets. Thrombosis Research 33:277-288
The data were transformed to semi-log and then analysed using non-linear regression to a four-parameter dose-response curve Y=Bottom+(Top−Bottom)/(1+10^((Log EC50−X)*HillSlope)) using the log(agonist) vs. response—Variable slope function of GraphPad Prism software (http://graphpad.com/help/prism5/prism5help.html?usingnonlinear_regression_step_by_s.ht m).

[1] = molecular target: T1, Human Recombinant (E. coli) PPARgamma (Homo sapiens, UniProt P37231); test: PPAR gamma binding assay ([3H]-rosiglitazone)
T1 construct: host or cells: E. coli
T1 sequence (P37231 1-505): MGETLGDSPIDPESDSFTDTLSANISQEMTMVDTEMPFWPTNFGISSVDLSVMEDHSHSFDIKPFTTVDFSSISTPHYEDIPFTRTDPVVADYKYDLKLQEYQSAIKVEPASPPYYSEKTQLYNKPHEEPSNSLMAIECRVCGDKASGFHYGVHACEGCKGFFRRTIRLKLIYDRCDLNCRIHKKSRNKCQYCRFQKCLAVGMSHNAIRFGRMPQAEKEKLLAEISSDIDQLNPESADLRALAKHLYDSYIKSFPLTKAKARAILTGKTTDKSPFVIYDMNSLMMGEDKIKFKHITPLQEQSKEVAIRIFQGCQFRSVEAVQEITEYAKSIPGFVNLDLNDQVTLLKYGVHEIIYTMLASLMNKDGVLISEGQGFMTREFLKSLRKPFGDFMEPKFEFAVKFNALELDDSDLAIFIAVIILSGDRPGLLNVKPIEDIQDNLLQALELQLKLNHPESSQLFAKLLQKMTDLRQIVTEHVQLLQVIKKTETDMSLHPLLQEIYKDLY
Experimental: Human Recombinant (E. coli) PPARgamma) (h) Binding Assay:
The results are expressed as a percent of control specific binding ((measured specific binding/control specific binding)×100) obtained in the presence of the test compounds. The IC50 values (concentration causing a half-maximal inhibition of control specific binding) and Hill coefficients (nil) were determined by non-linear regression analysis of the competition curves generated with mean replicate values using Hill equation curve fitting (Y=D+[(A−D)/(1+(C/C50)nH)], where Y=specific binding, D=minimum specific binding, A=maximum specific binding, C=compound concentration, C50=IC50, and nH=slope factor). This analysis is performed using a software developed at Cerep (Hill software) and validated by comparison with data generated by the commercial software SigmaPlot® 4.0 for Windows® (© 1997 by SPSS Inc.). The inhibition constants (Ki) are calculated using the Cheng Prusoff equation (Ki=IC50/(1+(L/KD)), where L=concentration of radioligand in the assay, and KD=affinity of the radioligand for the receptor).

Structure (SMILES) | Platelet aggregation Rabbit Inhibition (%) (TP Receptor) | conversion of the prodrug to the corresponding acid [1] | binding to PPARgamma ([1]; [3H]-rosiglitazone 10 nM, 120 min at 4° C., compared with the acid of Example 1)
COc1ccc(C(=O)NCc2cccnc2)cc1C(=O)NCc1cccnc1 [Picotamide] | 21% | – | –
COC(=O)CC/C=C\C[C@@H]1COC(c2ccccc2Cl)O[C@@H]1c1ccccc1O (stereo partly drawn) [Prodrug 2] | – | the prodrug is converted to the corresponding acid | binds to PPARgamma at least as well as the corresponding acid
